According to patent US7838554B2, “Dihydroxyl compounds and compositions for cholesterol management and related uses” (Esperion Therapeutics, Inc., priority 2003, dated 2010):
pIC50: −log10 of the molar value.

Tests used:
[1] = tested on: obese female Zucker rats; test: Oral daily treatment of chow fed obese female Zucker rats for fourteen days: serum lipids, glycemic indicators, body weight; type: in vivo, rat; conditions: 14 days, n=4
Experimental: In a number of different experiments, illustrative compounds of the invention are administered daily at a dose of up to 100 mg/kg to chow fed obese female Zucker rats for fourteen days in the morning by oral gavage in 1.5% carboxymethylcellulose/0.2% Tween 20 or 20% ethanol/80% polyethylene glycol (dosing vehicles). Animals are weighed daily. Animals are allowed free access to rodent chow and water throughout the study except on days of blood sampling where food is restricted for six hours prior to blood sampling. Blood glucose is determined after the 6 hour fast in the afternoon without anesthesia from a tail vein. Serum is also prepared from pretreatment blood samples subsequently obtained from the orbital venous plexus (with O2/CO2 anesthesia) and following the fourteenth dose at sacrifice from the heart following O2/CO2 anesthesia. Serums are assayed for lipoprotein cholesterol profiles, triglycerides, total cholesterol, Non-HDL cholesterol, HDL cholesterol, the ratio of HDL cholesterol to that of Non-HDL cholesterol, insulin, non-esterified fatty acids, and beta-hydroxy butyric acid. The percent body weight gain and the ratio of liver to body weight is also determined. These are shown as absolute values or as a percent change of the pretreatment values in Table 1

[2] = tested on: primary rat hepatocytes; test: Inhibition of lipid synthesis ([1-14C]-acetate incorporation) in primary cultures of rat hepatocytes; type: cell-based; conditions: Hepatocyte, 4 hours, 0-300 μM
Experimental: Compounds were tested for inhibition of lipid synthesis in primary cultures of rat hepatocytes. Male Sprague-Dawley rats were anesthetized with intraperitoneal injection of sodium pentobarbital (80 mg/kg). Rat hepatocytes were isolated essentially as described by the method of Seglen (Seglen, P. O. Hepatocyte suspensions and cultures as tools in experimental carcinogenesis. J. Toxicol. Environ. Health 1979, 5, 551-560). Hepatocytes were suspended in Dulbecco's Modified Eagles Medium containing 25 mM D-glucose, 14 mM HEPES, 5 mM L-glutamine, 5 mM leucine, 5 mM alanine, 10 mM lactate, 1 mM pyruvate, 0.2% bovine serum albumin, 17.4 mM non-essential amino acids, 20% fetal bovine serum, 100 nM insulin and 20 μg/mL gentamycin) and plated at a density of 1.5×10^5 cells/cm^2 on collagen-coated 96-well plates. Four hours after plating, media was replaced with the same media without serum. […] Lipid synthesis incubation conditions were initially assessed to ensure the linearity of [1-^14C])-acetate incorporation into hepatocyte lipids for up to 4 hours. Hepatocyte lipid synthesis inhibitory activity was assessed during incubations in the presence of 0.25 μCi [1-^14C]-acetate/well (final radiospecific activity in assay is 1 Ci/mol) and 0, 1, 3, 10, 30, 100 or 300 μM of compounds for 4 hours. […] Lipid radioactivity was assessed by scintillation spectroscopy in a Packard TopCount NXT.

[3] = Solubility noted on work-up of the tetraol; type: physicochemical
Source text: THP-protected bromo alcohol XA was converted into the corresponding Grignard reagent XB following the standard procedure (Vogel, A. I. “Vogel's Textbook of Practical Organic Chemistry”, 5th Edition, Longman, England, 1989, p. 535). Further coupling of this Grignard reagent in situ with succinic dialdehyde Z prepared by acid-catalyzed ring-opening of commercially available 2,5-dimethoxytetrahydrofuran Y (Fakstorp, J.; Raleigh, D.; Schniepp, L. E. J. Am. Chem. Soc., 1950, 72, 869, House, H. O.; Cronin, T. H. J. Org. Chem., 1965, 30, 1061) at 0 to 5° C. occurs smoothly to give the bis(THP-protected) tetraol XC in high yield (92% after flash column chromatography purification). Acidic hydrolysis of XC in methanol/aqueous H2SO4 was completed in two hours to afford tetraol XI). The product is insoluble in dichloromethane and diethyl ether and could be purified by washing with one of these solvents.

CC(C)(CO)CCCC(O)CCC(O)CCCC(C)(C)CO (centres unmarked) [Compound A]
% wt. gain ([1]; 100 mg/kg/day oral gavage): 13% | Glucose, Percent of Pre-treatment ([1]; blood glucose after 6 hour fast, 100 mg/kg/day oral): 11% | BHA, Percent of Pre-treatment ([1]; serum beta-hydroxy butyric acid, 100 mg/kg/day oral): 73% | NEFA, Percent of Pre-treatment ([1]; serum non-esterified fatty acids, 100 mg/kg/day oral): 143% | HDL-C/non-HDL-C ([1]; serum ratio, 100 mg/kg/day oral): 1 | TC, Percent of Pre-treatment ([1]; serum total cholesterol, 100 mg/kg/day oral): 4% | TG, Percent of Pre-treatment ([1]; serum triglycerides, 100 mg/kg/day oral): 43% | HDL-C, Percent of Pre-treatment ([1]; serum, 100 mg/kg/day oral): −19% | Insulin, Percent of Pre-treatment ([1]; serum, 100 mg/kg/day oral): 70% | Non-HDL-C, Percent of Pre-treatment ([1]; serum, 100 mg/kg/day oral): 30% | pIC50 [2]: 5.96

CC(C)(CO)CCCC(O)CCCC(O)CCCC(C)(C)CO (centres unmarked) [Compound 6.2.2, 2,2,14,14-Tetramethylpentadecane-1,6,10,15-tetraol]
melting point: 85 to 86 °C

CC(C)(CO)CCCC(O)CCC(O)CCCC(C)(C)CO (centres unmarked) [XI), 2,2,13,13-Tetramethyltetradecan-1,6,9,14-tetraol]
melting point: 96 to 97 °C | Solubility in water [3]: practically insoluble
